These are literature values, as cited in paper PMC3015105 (Bioorganic & medicinal chemistry letters, 2010).

Data set [1] has as its target human dopamine transporter (hDAT) (Homo sapiens, UniProt Q01959). The settings on record: read-out: IC50 DAT inhibition; reported by Carroll.

Chain of human dopamine transporter (hDAT) (Q01959 whole entry): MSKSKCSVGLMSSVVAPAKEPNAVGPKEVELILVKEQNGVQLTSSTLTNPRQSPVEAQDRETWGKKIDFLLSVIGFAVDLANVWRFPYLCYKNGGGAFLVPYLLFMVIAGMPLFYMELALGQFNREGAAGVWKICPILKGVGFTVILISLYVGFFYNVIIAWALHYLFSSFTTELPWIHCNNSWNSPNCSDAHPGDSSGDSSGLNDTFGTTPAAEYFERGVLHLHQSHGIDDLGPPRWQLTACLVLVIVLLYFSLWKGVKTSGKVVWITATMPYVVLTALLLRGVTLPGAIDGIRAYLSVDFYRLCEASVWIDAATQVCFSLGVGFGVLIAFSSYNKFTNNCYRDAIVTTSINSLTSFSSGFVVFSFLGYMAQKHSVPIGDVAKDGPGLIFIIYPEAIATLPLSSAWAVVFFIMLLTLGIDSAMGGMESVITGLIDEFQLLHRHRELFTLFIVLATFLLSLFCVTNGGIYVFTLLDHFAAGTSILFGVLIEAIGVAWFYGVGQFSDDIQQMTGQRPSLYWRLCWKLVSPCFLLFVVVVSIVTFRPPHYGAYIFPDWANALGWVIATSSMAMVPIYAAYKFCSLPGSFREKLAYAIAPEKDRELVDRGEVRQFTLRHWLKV

By IC50 is commonly meant the point on the concentration scale where inhibition reaches its midpoint. Take `Cc1cc(C2C3CCC(CC2c2ccc(Cl)cc2)S3)on1` (stereo not drawn) [2β-(3-methylisoxazol-5-yl)-3β-(4-chlorophenyl)-8-thiabicyclo[3.2.1]octane]: the IC50 in data set [1] is 0.59 nM.

Take `COC(=O)[C@H]1[C@@H](OC(=O)c2ccccc2)C[C@@H]2CC[C@H]1N2C` [Cocaine]: the duration of action is 10 to 15 min and the “immediate effect (onset)” value is less than 15 s.
